Converted amounts (≈) assume the structure as drawn. Where two headings read alike, the source gives them in different places.
System: S. aureus clinical isolates
Assay: microbe, parasite or virus in culture
Type: cell-based
Conditions: Staphylococcus aureus, read-out: MIC

Cc1onc(-c2ccccc2)c1C(=O)N[C@@H]1C(=O)N2[C@@H]1SC(C)(C)[C@@H]2C(=O)O [Oxacillin]
MIC (ATCC 29213 / MSSA, S. aureus ATCC 29213, MSSA / VSSA, test date 2018-10-25 (three repeat lines)): 0.25 µg/mL (≈ 0.623 µM)
MIC (ATCC 29213 / MSSA, S. aureus ATCC 29213, MSSA / VSSA, test date 2018-11-07): 0.25 µg/mL (≈ 0.623 µM)
MIC (MRSA / NRS 3 / VISA, S. aureus IHMA 1308243, NRS3, MRSA / VISA): > 64 µg/mL
MIC (MRSA / NRS 4 / VISA, S. aureus IHMA 649380, NRS4, MRSA / VISA): > 64 µg/mL
MIC (MRSA / NRS 18 / VISA, S. aureus IHMA 649386, NRS18, MRSA / VISA): 64 µg/mL (≈ 159 µM)
MIC (MRSA / NRS 19 / VISA, S. aureus IHMA 649387, NRS19, MRSA / VISA): > 64 µg/mL
MIC (MRSA / NRS 21 / VISA, S. aureus IHMA 649388, NRS21, MRSA / VISA): > 64 µg/mL
MIC (MRSA / NRS 22 / USA600 / VISA, S. aureus IHMA 649389, NRS22, MRSA / VISA, USA600): 16 µg/mL (≈ 39.9 µM)
MIC (MRSA / NRS 23 / VISA, S. aureus IHMA 649390, NRS23, MRSA / VISA): > 64 µg/mL
MIC (MRSA / NRS 24 / VISA, S. aureus IHMA 649391, NRS24, MRSA / VISA): > 64 µg/mL
MIC (MRSA / NRS 26, S. aureus IHMA 649392, NRS26, MRSA / VSSA): > 64 µg/mL
MIC (MRSA / NRS 27 / VISA, S. aureus IHMA 1308248, NRS27, MRSA / VISA): > 64 µg/mL
MIC (MRSA / NRS 29 / VISA, S. aureus IHMA 1308250, NRS29, MRSA / VISA): > 64 µg/mL
MIC (MRSA / NRS 37 / VISA, S. aureus IHMA 1308251, NRS37, MRSA / VISA): 8 µg/mL (≈ 19.9 µM)
MIC (MRSA / NRS 54, S. aureus IHMA 1308253, NRS54, MRSA / VSSA* (*Expected VAN intermediate, confirmed VAN susceptible twice), test date 2018-11-07): > 64 µg/mL
MIC (MRSA / NRS 56 / VISA, S. aureus IHMA 1308254, NRS56, MRSA / VISA): > 64 µg/mL
MIC (MRSA / USA100 / VRSA, S. aureus IHMA 672230, VRS1, MRSA / VRSA, USA100): > 64 µg/mL
MIC (MRSA / USA100 / VRSA, S. aureus IHMA 672231, VRS2, MRSA / VRSA, USA100): > 64 µg/mL
MIC (MRSA / USA100 / VRSA, S. aureus IHMA 672234, VRS4, MRSA / VRSA, USA100): > 64 µg/mL
MIC (MRSA / USA100 / VRSA, S. aureus IHMA 672235, VRS5, MRSA / VRSA, USA100): > 64 µg/mL
MIC (MRSA / USA100 / VRSA, S. aureus IHMA 672237, VRS7, MRSA / VRSA, USA100): > 64 µg/mL
MIC (MRSA / USA100 / VRSA, S. aureus IHMA 672238, VRS8, MRSA / VRSA, USA100): > 64 µg/mL
MIC (MRSA / USA100 / VRSA, S. aureus IHMA 672239, VRS9, MRSA / VRSA, USA100): > 64 µg/mL
MIC (MRSA / USA100 / VRSA, S. aureus IHMA 1308256, VRS10, MRSA / VRSA, USA100): > 64 µg/mL
MIC (MRSA / USA100 / VRSA, S. aureus IHMA 1308258, VRS11b, MRSA / VRSA, USA100): 16 µg/mL (≈ 39.9 µM)
MIC (MRSA / USA800 / VRSA, S. aureus IHMA 672233, VRS3b, MRSA / VRSA, USA800): > 64 µg/mL
MIC (MRSA, S. aureus IHMA 1569509, MRSA / VSSA): > 64 µg/mL
MIC (MRSA, S. aureus IHMA 1575268, MRSA / VSSA): > 64 µg/mL
MIC (MRSA, S. aureus IHMA 1575629, MRSA / VSSA): 64 µg/mL (≈ 159 µM)
MIC (MRSA, S. aureus IHMA 1577820, MRSA / VSSA): 32 µg/mL (≈ 79.7 µM)
MIC (MRSA, S. aureus IHMA 1580300, MRSA / VSSA): > 64 µg/mL
MIC (MRSA, S. aureus IHMA 1580940, MRSA / VSSA): 32 µg/mL (≈ 79.7 µM)
MIC (MRSA, S. aureus IHMA 1582100, MRSA / VSSA): > 64 µg/mL
MIC (MRSA, S. aureus IHMA 1583795, MRSA / VSSA): > 64 µg/mL
MIC (MRSA, S. aureus IHMA 1584223, MRSA / VSSA): > 64 µg/mL
MIC (MRSA, S. aureus IHMA 1585316, MRSA / VSSA): > 64 µg/mL
MIC (MRSA, S. aureus IHMA 1586780, MRSA / VSSA): 32 µg/mL (≈ 79.7 µM)
MIC (MRSA, S. aureus IHMA 1587322, MRSA / VSSA): > 64 µg/mL
MIC (MRSA, S. aureus IHMA 1588127, MRSA / VSSA): 32 µg/mL (≈ 79.7 µM)
MIC (MRSA, S. aureus IHMA 1591462, MRSA / VSSA): 32 µg/mL (≈ 79.7 µM)
MIC (MRSA, S. aureus IHMA 1592755, MRSA / VSSA): > 64 µg/mL
MIC (MRSA, S. aureus IHMA 1592776, MRSA / VSSA): 32 µg/mL (≈ 79.7 µM)
MIC (MRSA, S. aureus IHMA 1597106, MRSA / VSSA): > 64 µg/mL
MIC (MRSA, S. aureus IHMA 1602095, MRSA / VSSA): 32 µg/mL (≈ 79.7 µM)
MIC (MRSA, S. aureus IHMA 1611170, MRSA / VSSA): 16 µg/mL (≈ 39.9 µM)
MIC (MRSA, S. aureus IHMA 1611612, MRSA / VSSA): > 64 µg/mL
MIC (MRSA, S. aureus IHMA 1612228, MRSA / VSSA): > 64 µg/mL
MIC (MRSA, S. aureus IHMA 1620441, MRSA / VSSA): > 64 µg/mL
MIC (MRSA, S. aureus IHMA 1621638, MRSA / VSSA): 32 µg/mL (≈ 79.7 µM)
MIC (MRSA, S. aureus IHMA 1622252, MRSA / VSSA): > 64 µg/mL
MIC (MRSA, S. aureus IHMA 1622527, MRSA / VSSA): 32 µg/mL (≈ 79.7 µM)
MIC (MRSA, S. aureus IHMA 1666371, MRSA / VSSA): 16 µg/mL (≈ 39.9 µM)
MIC (MRSA, S. aureus IHMA 1695391, MRSA / VSSA): > 64 µg/mL
MIC (MRSA, S. aureus IHMA 1703428, MRSA / VSSA): 64 µg/mL (≈ 159 µM)
MIC (MRSA, S. aureus IHMA 1720350, MRSA / VSSA): 32 µg/mL (≈ 79.7 µM)
MIC (MRSA, S. aureus IHMA 1732989, MRSA / VSSA): > 64 µg/mL
MIC (MRSA, S. aureus IHMA 1742231, MRSA / VSSA): > 64 µg/mL
MIC (MRSA, S. aureus IHMA 1766357, MRSA / VSSA): 32 µg/mL (≈ 79.7 µM)
MIC (MSSA / NRS 12 / VISA, S. aureus IHMA 1308244, NRS12, MSSA / VISA): 0.25 µg/mL (≈ 0.623 µM)
MIC (MSSA / NRS 13 / VISA, S. aureus IHMA 1308245, NRS13, MSSA / VISA): 0.5 µg/mL (≈ 1.25 µM)
MIC (MSSA / NRS 14 / VISA, S. aureus IHMA 1308246, NRS14, MSSA / VISA): 0.25 µg/mL (≈ 0.623 µM)
MIC (MSSA / NRS 17 / VISA, S. aureus IHMA 1308247, NRS17, MSSA / VISA): 2 µg/mL (≈ 4.98 µM)
MIC (MSSA / NRS 28 / VISA, S. aureus IHMA 1308249, NRS28, MSSA / VISA): 2 µg/mL (≈ 4.98 µM)
MIC (MSSA / NRS 52, S. aureus IHMA 1308252, NRS52, MSSA / VSSA* (*Expected VAN intermediate, confirmed VAN susceptible twice), test date 2018-11-07): 0.12 µg/mL (≈ 0.299 µM)
MIC (MSSA / USA100 / VRSA, S. aureus IHMA 672236, VRS6, MSSA / VRSA, USA100): 2 µg/mL (≈ 4.98 µM)
MIC (MSSA, S. aureus IHMA 1563826, MSSA / VSSA): 0.25 µg/mL (≈ 0.623 µM)
MIC (MSSA, S. aureus IHMA 1565492, MSSA / VSSA): 0.25 µg/mL (≈ 0.623 µM)
MIC (MSSA, S. aureus IHMA 1569499, MSSA / VSSA): 1 µg/mL (≈ 2.49 µM)
MIC (MSSA, S. aureus IHMA 1569754, MSSA / VSSA): 1 µg/mL (≈ 2.49 µM)
MIC (MSSA, S. aureus IHMA 1574202, MSSA / VSSA): 2 µg/mL (≈ 4.98 µM)
MIC (MSSA, S. aureus IHMA 1575652, MSSA / VSSA): 1 µg/mL (≈ 2.49 µM)
MIC (MSSA, S. aureus IHMA 1575779, MSSA / VSSA): 0.5 µg/mL (≈ 1.25 µM)
MIC (MSSA, S. aureus IHMA 1576329, MSSA / VSSA): 0.5 µg/mL (≈ 1.25 µM)
MIC (MSSA, S. aureus IHMA 1577800, MSSA / VSSA): 0.5 µg/mL (≈ 1.25 µM)
MIC (MSSA, S. aureus IHMA 1578560, MSSA / VSSA): 0.5 µg/mL (≈ 1.25 µM)
MIC (MSSA, S. aureus IHMA 1580233, MSSA / VSSA): 0.5 µg/mL (≈ 1.25 µM)
MIC (MSSA, S. aureus IHMA 1580925, MSSA / VSSA): 0.5 µg/mL (≈ 1.25 µM)
MIC (MSSA, S. aureus IHMA 1580955, MSSA / VSSA): 0.5 µg/mL (≈ 1.25 µM)
MIC (MSSA, S. aureus IHMA 1582586, MSSA / VSSA): 0.5 µg/mL (≈ 1.25 µM)
MIC (MSSA, S. aureus IHMA 1582691, MSSA / VSSA): 0.25 µg/mL (≈ 0.623 µM)
MIC (MSSA, S. aureus IHMA 1584230, MSSA / VSSA): 0.5 µg/mL (≈ 1.25 µM)
MIC (MSSA, S. aureus IHMA 1587279, MSSA / VSSA): 0.25 µg/mL (≈ 0.623 µM)
MIC (MSSA, S. aureus IHMA 1591459, MSSA / VSSA): 0.25 µg/mL (≈ 0.623 µM)
MIC (MSSA, S. aureus IHMA 1592749, MSSA / VSSA): 0.25 µg/mL (≈ 0.623 µM)
MIC (MSSA, S. aureus IHMA 1592751, MSSA / VSSA): 0.5 µg/mL (≈ 1.25 µM)
MIC (MSSA, S. aureus IHMA 1594297, MSSA / VSSA): 0.5 µg/mL (≈ 1.25 µM)
MIC (MSSA, S. aureus IHMA 1597120, MSSA / VSSA): 0.25 µg/mL (≈ 0.623 µM)
MIC (MSSA, S. aureus IHMA 1597125, MSSA / VSSA): 0.5 µg/mL (≈ 1.25 µM)
MIC (MSSA, S. aureus IHMA 1599157, MSSA / VSSA): 0.5 µg/mL (≈ 1.25 µM)
MIC (MSSA, S. aureus IHMA 1599506, MSSA / VSSA): 0.5 µg/mL (≈ 1.25 µM)
MIC (MSSA, S. aureus IHMA 1602078, MSSA / VSSA): 1 µg/mL (≈ 2.49 µM)
MIC (MSSA, S. aureus IHMA 1604586, MSSA / VSSA): 0.5 µg/mL (≈ 1.25 µM)
MIC (MSSA, S. aureus IHMA 1604609, MSSA / VSSA): 0.25 µg/mL (≈ 0.623 µM)
MIC (MSSA, S. aureus IHMA 1609919, MSSA / VSSA): 0.25 µg/mL (≈ 0.623 µM)
MIC (MSSA, S. aureus IHMA 1622864, MSSA / VSSA): 0.5 µg/mL (≈ 1.25 µM)
MIC (MSSA, S. aureus IHMA 1626392, MSSA / VSSA): 0.5 µg/mL (≈ 1.25 µM)
MIC (MSSA, S. aureus IHMA 1713793, MSSA / VSSA): 0.5 µg/mL (≈ 1.25 µM)

Source: article PMC7561186, “Rational design of balanced dual-targeting antibiotics with limited resistance” (PLoS Biology, 2020)
